Measured values from patent publication US7087642B2 (priority 1999, dated 2006).
Where two headings read alike, the source gives them in different places.

Tests used:
IMPDH human type II = IMPDH human type II (Homo sapiens, UniProt P12268); experiment: biochemical
human PBMC T cells = experiment: cells; assay type: cell-based; settings: read-out: T-cells (IC50)
human PBMC B cells = experiment: cells; assay type: cell-based; settings: read-out: B-cells (IC50)

| Structure (SMILES) | Ki (IMPDH human type II; read-out: Ki) | IC50 (human PBMC T cells; Homo sapiens, 72 h) | IC50 (human PBMC B cells; Homo sapiens, 72 h) | Ki (IMPDH human type II) | IC50 (human PBMC T cells) | IC50 (human PBMC B cells) |
| --- | --- | --- | --- | --- | --- | --- |
| COc1cc(NC(=O)Nc2cccc([C@H](C)NC(=O)OCCC#N)c2)ccc1C#N [Compound 170] | < 10 nM | 100 to 1000 nM | 100 to 1000 nM |  |  |  |
| COc1cc(NC(=O)Nc2cccc([C@@H](C)NC(=O)OCCC#N)c2)ccc1C#N [Compound 173] | > 50 nM | > 1000 nM | 100 to 1000 nM |  |  |  |
| CCC(CC#N)OC(=O)N[C@H](C)c1cccc(NC(=O)Nc2ccc(C#N)c(OC)c2)c1 (stereo partly drawn) [Compound 174] |  |  |  | > 50 nM | > 1000 nM | 100 to 1000 nM |
| CCC(CO)OC(=O)N[C@H](C)c1cccc(NC(=O)Nc2ccc(C#N)c(OC)c2)c1 (stereo partly drawn) [Compound 175] | > 50 nM | > 1000 nM | > 1000 nM |  |  |  |
| CC[C@H](CO)OC(=O)N[C@H](C)c1cccc(NC(=O)Nc2ccc(C#N)c(OC)c2)c1 [Compound 179] | > 50 nM | > 1000 nM | > 1000 nM |  |  |  |
| CC[C@H](CO)OC(=O)N[C@@H](C)c1cccc(NC(=O)Nc2ccc(C#N)c(OC)c2)c1 [Compound 180] | 10 to 50 nM | 100 to 1000 nM | > 1000 nM |  |  |  |
| CCC(CC#N)OC(=O)N[C@@H](C)c1cccc(NC(=O)Nc2ccc(-c3cnco3)c(OC)c2)c1 (stereo partly drawn) [Compound 181] | < 10 nM | < 100 nM | < 100 nM |  |  |  |
| CCOc1cc(NC(=O)Nc2cccc([C@H](C)NC(=O)O[C@H](CC)CC#N)c2)ccc1C#N [Compound 182] | > 50 nM | > 1000 nM | 100 to 1000 nM |  |  |  |
| COc1cc(NC(=O)Nc2cccc([C@H](C)NC(=O)O[C@H]3CCOC3)c2)ccc1C#N [Compound 185] | 10 to 50 nM |  |  |  | 100 to 1000 nM | 100 to 1000 nM |
| C[C@H](NC(=O)O[C@H]1CCOC1)c1cccc(NC(=O)Nc2ccc(C#N)c(Cl)c2)c1 [Compound 187] |  | 100 to 1000 nM | < 100 nM | 10 to 50 nM |  |  |
